Assay results: patent publication US20170143701A1, “CARBOHYDRATE METABOLISM-AMELIORATING AGENT” (SUNTORY HOLDINGS LIMITED, priority 2014, published 2017)

Columns and labels:
NCI-H716 cells = assay: In vitro GLP-1 secretion-accelerating action: amount of active GLP-1 secreted (ELISA); type: cell-based; settings: 1 hour; for Significant difference (p < 0.05) vs control group, amount of active GLP-1 secreted: 10 mM, Student's t-test; for Amount of active GLP-1 secreted (relative value to control group as 100), average value: cyclic dipeptide 10 mM with 10 μM Sitagliptin phosphate, group with no cyclic dipeptide = 100
In short: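 NCI-H716 cells were cultured 48 h, then exposed 1 hour to cyclic dipeptide at 10 mM final with 10 μM sitagliptin in PBS(+). Active GLP-1 in the supernatant was measured by ELISA and expressed relative to the no-dipeptide group (=100).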

C57/BL6J mice = assay: In vivo plasma GLP-1 level-increasing action: plasma active GLP-1 level (ELISA) after oral administration; settings: 10 mg/kg oral; for Significant difference (p < 0.05) vs control group, plasma active GLP-1 level: 30 minutes, Student's t-test; for Plasma active GLP-1 level (relative value to control group as 100), average value: blood 30 minutes after, 0.5% CMC-Na group = 100
In short: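 Male C57BL/6J mice, habituated 1 week, deprived of food 5.5 h and water 2 h, then dosed orally with compound at 10 mg/kg in 0.5% CMC-Na. Vena cava blood taken 30 min later under anaesthesia, with heparin and sitagliptin added; plasma active GLP-1 by ELISA, relative to vehicle group set at 100.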

| SMILES | Significant difference (p < 0.05) vs control group, plasma active GLP-1 level (C57/BL6J mice; Table 6, Experiment 1) | Plasma active GLP-1 level (relative value to control group as 100), average value (C57/BL6J mice; Table 6, Experiment 1) | Significant difference (p < 0.05) vs control group, amount of active GLP-1 secreted (NCI-H716 cells; Table 4, Experiment 4) | Amount of active GLP-1 secreted (relative value to control group as 100), average value (NCI-H716 cells; Table 4, Experiment 4) | other results |
| --- | --- | --- | --- | --- | --- |
| CSCC[C@@H]1NC(=O)[C@@H]2CCCN2C1=O [compound 18, cyclo-methionyl-proline] | Yes | 138 |  |  | Significant difference (p < 0.05) vs control group, amount of active GLP-1 secreted (NCI-H716 cells; Table 1, Experiment 1): Yes; Amount of active GLP-1 secreted (relative value to control group as 100), average value (NCI-H716 cells; Table 1, Experiment 1): 338 |
| CC1NC(=O)C(CO)NC1=O (stereo not shown) [compound 25, cyclo-alanyl-serine] | Yes | 158 |  |  | Significant difference (p < 0.05) vs control group, amount of active GLP-1 secreted (NCI-H716 cells; Table 1, Experiment 1): Yes; Amount of active GLP-1 secreted (relative value to control group as 100), average value (NCI-H716 cells; Table 1, Experiment 1): 257 |
| C[C@@H](O)[C@@H]1NC(=O)[C@@H]2CCCN2C1=O [compound 31, Cyclo(Pro-Thr)] | No | 129 |  |  | Significant difference (p < 0.05) vs control group, amount of active GLP-1 secreted (NCI-H716 cells; Table 1, Experiment 1): Yes; Amount of active GLP-1 secreted (relative value to control group as 100), average value (NCI-H716 cells; Table 1, Experiment 1): 204 |
| C[C@@H]1NC(=O)[C@H](Cc2cnc[nH]2)NC1=O [compound 34, Cyclo(Ala-His)] | No | 100 |  |  | Significant difference (p < 0.05) vs control group, amount of active GLP-1 secreted (NCI-H716 cells; Table 1, Experiment 1): No; Amount of active GLP-1 secreted (relative value to control group as 100), average value (NCI-H716 cells; Table 1, Experiment 1): 211 |
| O=C1N[C@@H](Cc2cnc[nH]2)C(=O)N2CCC[C@@H]12 [compound 37, cyclo-histidyl-proline] | Yes | 62 |  |  | Significant difference (p < 0.05) vs control group, amount of active GLP-1 secreted (NCI-H716 cells; Table 1, Experiment 1): No; Amount of active GLP-1 secreted (relative value to control group as 100), average value (NCI-H716 cells; Table 1, Experiment 1): 231 |
| CC(C)C[C@@H]1NC(=O)[C@H](CCCN=C(N)N)NC1=O [compound 43, cyclo-arginyl-leucine] | Yes | 138 |  |  | Significant difference (p < 0.05) vs control group, amount of active GLP-1 secreted (NCI-H716 cells; Table 1, Experiment 1): Yes; Amount of active GLP-1 secreted (relative value to control group as 100), average value (NCI-H716 cells; Table 1, Experiment 1): 226 |
| O=C(O)C[C@@H]1NC(=O)[C@@H]2CCCN2C1=O [compound 48, Cyclo(Asp-Pro)] | No | 110 |  |  | Significant difference (p < 0.05) vs control group, amount of active GLP-1 secreted (NCI-H716 cells; Table 2, Experiment 2): Yes; Amount of active GLP-1 secreted (relative value to control group as 100), average value (NCI-H716 cells; Table 2, Experiment 2): 199 |
| O=C1NC(Cc2c[nH]c3ccccc23)C(=O)NC1Cc1cnc[nH]1 (stereo not shown) [compound 60, Cyclo(Trp-His)] | No | 129 |  |  | Significant difference (p < 0.05) vs control group, amount of active GLP-1 secreted (NCI-H716 cells; Table 2, Experiment 2): Yes; Amount of active GLP-1 secreted (relative value to control group as 100), average value (NCI-H716 cells; Table 2, Experiment 2): 260 |
| NCCCCC1NC(=O)C(Cc2ccccc2)NC1=O (stereo not shown) [compound 63, cyclo-lysyl-phenylalanine] | Yes | 206 |  |  | Significant difference (p < 0.05) vs control group, amount of active GLP-1 secreted (NCI-H716 cells; Table 2, Experiment 2): Yes; Amount of active GLP-1 secreted (relative value to control group as 100), average value (NCI-H716 cells; Table 2, Experiment 2): 220 |
| CC(O)C1NC(=O)C(C(C)O)NC1=O (stereo not shown) [compound 164, cyclo-threonyl-threonine] |  |  |  |  | Significant difference (p < 0.05) vs control group, amount of active GLP-1 secreted (NCI-H716 cells; Table 3, Experiment 3): Yes; Amount of active GLP-1 secreted (relative value to control group as 100), average value (NCI-H716 cells; Table 3, Experiment 3): 162; Significant difference (p < 0.05) vs control group, plasma active GLP-1 level (C57/BL6J mice; Table 15, Experiment 10): Yes; Plasma active GLP-1 level (relative value to control group as 100), average value (C57/BL6J mice; Table 15, Experiment 10): 282 |
| NC(=O)CC1NC(=O)C(CC(N)=O)NC1=O (stereo not shown) [compound 173, Cyclo(Asn-Asn)] |  |  | Yes | 255 | Significant difference (p < 0.05) vs control group, plasma active GLP-1 level (C57/BL6J mice; Table 15, Experiment 10): No; Plasma active GLP-1 level (relative value to control group as 100), average value (C57/BL6J mice; Table 15, Experiment 10): 123 |
| NC(=O)CCC1NC(=O)C(CC(N)=O)NC1=O (stereo not shown) [compound 174, Cyclo(Gln-Asn)] |  |  | Yes | 305 | Significant difference (p < 0.05) vs control group, plasma active GLP-1 level (C57/BL6J mice; Table 15, Experiment 10): No; Plasma active GLP-1 level (relative value to control group as 100), average value (C57/BL6J mice; Table 15, Experiment 10): 168 |
| CC[C@H](C)[C@@H]1NC(=O)[C@H](CCC(N)=O)NC1=O [compound 182, cyclo-glutaminyl-isoleucine] |  |  | Yes | 445 | Significant difference (p < 0.05) vs control group, plasma active GLP-1 level (C57/BL6J mice; Table 7, Experiment 2): Yes; Plasma active GLP-1 level (relative value to control group as 100), average value (C57/BL6J mice; Table 7, Experiment 2): 188 |
| C[C@@H]1NC(=O)[C@@H]2CCCN2C1=O [compound 187, cyclo-L-alanyl-proline] |  |  | Yes | 1186 | Significant difference (p < 0.05) vs control group, plasma active GLP-1 level (C57/BL6J mice; Table 7, Experiment 2): Yes; Plasma active GLP-1 level (relative value to control group as 100), average value (C57/BL6J mice; Table 7, Experiment 2): 217 |
| N=C(N)NCCC[C@@H]1NC(=O)[C@H](Cc2c[nH]c3ccccc23)NC1=O [compound 189, cyclo-tryptophanyl-arginine] |  |  | Yes | 314 |  |
| NC(=O)CC[C@@H]1NC(=O)[C@H](Cc2cnc[nH]2)NC1=O [compound 191, cyclo-glutaminyl-histidine] |  |  | Yes | 743 | Significant difference (p < 0.05) vs control group, plasma active GLP-1 level (C57/BL6J mice; Table 7, Experiment 2): Yes; Plasma active GLP-1 level (relative value to control group as 100), average value (C57/BL6J mice; Table 7, Experiment 2): 247 |
| O=C(O)CCC1NC(=O)C(CO)NC1=O (stereo not shown) [compound 192, cyclo-seryl-glutamic acid] |  |  | Yes |  |  |
| O=C(O)C[C@@H]1NC(=O)[C@H](CO)NC1=O [compound 193, cyclo-aspartyl-serine] |  |  | Yes | 509 | Significant difference (p < 0.05) vs control group, plasma active GLP-1 level (C57/BL6J mice; Table 7, Experiment 2): Yes; Plasma active GLP-1 level (relative value to control group as 100), average value (C57/BL6J mice; Table 7, Experiment 2): 266 |
| CC(C)[C@@H]1NC(=O)[C@H](CCCN=C(N)N)NC1=O [compound 194, cyclo-arginyl-valine] |  |  | Yes | 498 | Significant difference (p < 0.05) vs control group, plasma active GLP-1 level (C57/BL6J mice; Table 7, Experiment 2): Yes; Plasma active GLP-1 level (relative value to control group as 100), average value (C57/BL6J mice; Table 7, Experiment 2): 237 |
| N=C(N)NCCC[C@@H]1NC(=O)[C@H](CC(N)=O)NC1=O [compound 197, cyclo-asparaginyl-arginine] |  |  | Yes | 359 |  |
| CSCC[C@@H]1NC(=O)[C@H](CCCNC(=N)N)NC1=O [compound 199, cyclo-methionyl-arginine] |  |  | Yes | 652 | Significant difference (p < 0.05) vs control group, plasma active GLP-1 level (C57/BL6J mice; Table 7, Experiment 2): Yes; Plasma active GLP-1 level (relative value to control group as 100), average value (C57/BL6J mice; Table 7, Experiment 2): 217 |
| NC(=O)CC1NC(=O)C2CCCN2C1=O (stereo not shown) [compound 201, cyclo-asparaginyl-proline] |  |  | Yes | 430 |  |
| NC(N)=NCCCC1NC(=O)C(CC(=O)O)NC1=O (stereo not shown) [compound 207, cyclo-arginyl-aspartic acid] |  |  | Yes | 1255 | Significant difference (p < 0.05) vs control group, plasma active GLP-1 level (C57/BL6J mice; Table 7, Experiment 2): Yes; Plasma active GLP-1 level (relative value to control group as 100), average value (C57/BL6J mice; Table 7, Experiment 2): 266 |
| N=C(N)NCCC[C@@H]1NC(=O)[C@H](CCCNC(=N)N)NC1=O [compound 212, cyclo-arginyl-arginine] |  |  | Yes | 1050 |  |
